From BigSolDB 2.1

Conditions: in water

N[C@@H](CCC(=O)N[C@@H](CS)C(=O)NCC(=O)O)C(=O)O
Conditions	solubility (mole fraction)
278.15 K	0.00427
283.15 K	0.00519
288.15 K	0.00659
293.15 K	0.00792
298.15 K	0.00936
303.15 K	0.0115
308.15 K	0.0139
313.15 K	0.0169
318.15 K	0.0202
